Assay results: patent US20260001914A1, “MACROCYCLIC PEPTIDES TARGETING KRAS” (Merck Sharp & Dohme LLC, priority 2022, published 2026)
*1 amine or outer side, *2 acyl side, *3 side chain or, on linkers, in order; H or OH if unused. Where a SMILES comes first, the peptide text is derived from it. Bridges are numbered along the chain shown (N, C = ends). [ ]: non-standard residue; d: D form. X19 = C[C@H](c1ccccc1)[C@@H](C(=O)[*:2])N(C)[*:1]; Ala(pyrimidin-5-yl) = N[C@@H](Cc1cncnc1)C(=O)O; NMe3Pal(6-Me) = CN[C@@H](Cc1ccc(C)nc1)C(=O)O; X43 = CN([C@@H](Cc1cnccc1F)C(=O)[*:2])[*:1]; NMePhe(4-F) = CN[C@@H](Cc1ccc(F)cc1)C(=O)O; X33 = O=C([C@H](Cc1ccnc(F)c1F)N[*:1])[*:2]; X7 = C[C@H](N[*:1])C12CC(C(=O)[*:2])(C1)C2; X25 = O=C([C@H](Cc1ccc(F)nc1)N[*:1])[*:2]; X5 = O=C([C@H](Cc1c(F)ccnc1F)N[*:1])[*:2]; X11 = CC(C)(F)CC[C@H](N[*:1])C(=O)[*:2]; X46 = O=C([C@H](Cc1cccnc1F)N[*:1])[*:2]; Nle(5,5-F2) = CC(F)(F)CC[C@H](N)C(=O)O; X47 = O=C([C@H](Cc1ccoc1)N[*:1])[*:2]; Phe(2-F) = N[C@@H](Cc1ccccc1F)C(=O)O; NMe3Pal = CN[C@@H](Cc1cccnc1)C(=O)O; NMeY = CN[C@@H](Cc1ccc(O)cc1)C(=O)O; X1 = O=C(C12CC(CN[*:1])(C1)C2)[*:2]; Aha = [N-]=[N+]=NCC[C@H](N)C(=O)O; NMeOrn(Me) = CNCCC[C@H](NC)C(=O)O; Ala(cPr) = N[C@@H](CC1CC1)C(=O)O; NMeF = CN[C@@H](Cc1ccccc1)C(=O)O; PhLac = O=C(O)[C@@H](O)Cc1ccccc1; 3Pal = N[C@@H](Cc1cccnc1)C(=O)O; Ahp(2) = CCCCC[C@H](N)C(=O)O; Cba = N[C@@H](CC1CCC1)C(=O)O; hLeu = CC(C)CC[C@H](N)C(=O)O; αMeC = C[C@](N)(CS)C(=O)O; NMeA = CN[C@@H](C)C(=O)O; Nle = CCCC[C@H](N)C(=O)O; Nva = CCC[C@H](N)C(=O)O

Target: phosphorylation levels of ERK1/2 in AsPC-1 (homozygous KRAS-G12D) cells (Homo sapiens, UniProt P01116, G12D)
Sequence (P01116 1-186 G12D): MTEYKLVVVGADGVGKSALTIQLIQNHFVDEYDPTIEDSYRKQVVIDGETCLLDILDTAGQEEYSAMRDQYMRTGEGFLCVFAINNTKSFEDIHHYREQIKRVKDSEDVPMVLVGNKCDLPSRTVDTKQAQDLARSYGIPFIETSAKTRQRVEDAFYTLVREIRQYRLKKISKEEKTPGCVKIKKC
Test: Cellular phospho-ERK assay in AsPC-1 cells (Alpha Screen), assay medium without fetal bovine serum;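 note: signal taken as phospho-ERK over total ERK per well, both detected in one multiplex bead assay, EC50 from four-parameter logistic fit of dose-response curves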
Type: cell-based
Details: phospho-ERK AlphaScreen, 18 h

SMILES | EC50 [µM]
CCCC[C@@H]1NC(=O)[C@H](Cc2ccc(F)nc2)NC(=O)[C@H](C)N(C)C(=O)[C@H](Cc2ccccc2)OC(=O)C23CC(CNC(=O)[C@H](Cc4ccccc4)N(C)C(=O)[C@H](CCCC)NC(=O)[C@H](Cc4ccccc4F)NC1=O)(C2)C3 [compound 231, cyclo(FLac-NMeA-4F3Pal-Nle-Phe2F-Nle-NMeF-amBCP)] (cyclo([NMeA][X25][Nle][Phe(2-F)][Nle][NMeF][X1][PhLac])) | 0.589
CCCC[C@@H]1NC(=O)[C@H](Cc2cccnc2)NC(=O)[C@H](C)N(C)C(=O)[C@H](Cc2ccccc2)OC(=O)C23CC(CNC(=O)[C@H](Cc4cccnc4)N(C)C(=O)[C@H](CCCC)NC(=O)[C@H](Cc4ccccc4F)NC1=O)(C2)C3 [compound 244, cyclo(FLac-NMeA-3Pal-Nle-Phe2F-Nle-NMe3Pal-amBCP)] (cyclo([3Pal][Nle][Phe(2-F)][Nle][NMe3Pal][X1][PhLac][NMeA])) | 7.3
CCCC[C@@H]1NC(=O)[C@H](Cc2cncnc2)NC(=O)[C@H](C)N(C)C(=O)[C@H](Cc2ccccc2)OC(=O)C23CC(C2)(C3)[C@H](C)NC(=O)[C@H](Cc2cccnc2)N(C)C(=O)[C@H](CCCC)NC(=O)[C@H](Cc2ccccc2F)NC1=O [compound 121, cyclo(FLac-NMeA-PyrimAla-Nle-Phe2F-Nle-NMe3Pal-SMeamBCP)] (cyclo([NMe3Pal][X7][PhLac][NMeA][Ala(pyrimidin-5-yl)][Nle][Phe(2-F)][Nle])) | 23.4
C[C@H](c1ccccc1)[C@H]1C(=O)NCC23CC(C2)(C3)C(=O)O[C@@H](Cc2ccccc2)C(=O)N(C)[C@@H](C)C(=O)N[C@@H](Cc2cncnc2)C(=O)N[C@@H](CC2CC2)C(=O)N[C@@H](Cc2ccccc2F)C(=O)N[C@@H](CCC(C)(C)F)C(=O)N1C [compound 341, cyclo(FLac-NMeA-PyrimAla-cPrA-Phe2F-hL3F-NMeRbMeF-amBCP)] (cyclo([Ala(cPr)][Phe(2-F)][X11][X19][X1][PhLac][NMeA][Ala(pyrimidin-5-yl)])) | > 50.8
CCCC[C@@H]1NC(=O)[C@H](Cc2cncnc2)NC(=O)[C@H](C)N(C)C(=O)[C@H](Cc2ccccc2)OC(=O)C23CC(CNC(=O)[C@H](Cc4ccc(OC)cc4)N(C)C(=O)[C@H](CCCC)NC(=O)[C@H](Cc4ccccc4F)NC1=O)(C2)C3 [compound 175, cyclo(FLac-NMeA-PyrimAla-Nle-Phe2F-Nle-NMeYOMe-amBCP)] (cyclo([NMeA][Ala(pyrimidin-5-yl)][Nle][Phe(2-F)][Nle][NMeY](Me)[X1][PhLac])) | 0.439
CCCC[C@@H]1NC(=O)[C@H](Cc2cncnc2)NC(=O)[C@H](C)N(C)C(=O)[C@H](Cc2ccccc2)OC(=O)C23CC(CNC(=O)[C@H](Cc4ccc(F)cc4)N(C)C(=O)[C@H](CCCC)NC(=O)[C@H](Cc4ccccc4F)NC1=O)(C2)C3 [compound 173, cyclo(FLac-NMeA-PyrimAla-Nle-Phe2F-Nle-NMePhe4F-amBCP)] (cyclo([NMeA][Ala(pyrimidin-5-yl)][Nle][Phe(2-F)][Nle][NMePhe(4-F)][X1][PhLac])) | 0.994
C[C@H]1C(=O)N[C@@H](Cc2cncnc2)C(=O)N[C@@H](CC2CC2)C(=O)N[C@@H](Cc2ccccc2F)C(=O)N[C@@H](CC2CC2)C(=O)N(C)[C@@H](Cc2ccccc2)C(=O)NCC23CC(C2)(C3)C(=O)O[C@@H](Cc2ccccc2)C(=O)N1C [compound 267, cyclo(FLac-NMeA-PyrimAla-cPrA-Phe2F-cPrA-NMeF-amBCP)] (cyclo([Ala(cPr)][NMeF][X1][PhLac][NMeA][Ala(pyrimidin-5-yl)][Ala(cPr)][Phe(2-F)])) | 9.13
CCCC[C@@H]1NC(=O)[C@H](C(C)C)NC(=O)[C@H](CC2CCC2)NC(=O)[C@H](Cc2cccnc2)NC(=O)[C@H](CCN=[N+]=[N-])NC(=O)[C@H](Cc2ccccc2)NC(=O)C23CC(CNC(=O)[C@H](Cc4cccnc4)N(C)C1=O)(C2)C3 [compound 113, cyclo(F-DabN3~3Pal-cBuA-V-Nle-NMe3Pal-amBCP)] (cyclo(F[Aha][3Pal][Cba]V[Nle][NMe3Pal][X1])) | > 50.8
CCCC[C@@H]1NC(=O)[C@H](Cc2cccnc2)NC(=O)[C@H](C)N(C)C(=O)[C@H](Cc2ccccc2)OC(=O)C23CC(CNC(=O)[C@H](Cc4cccnc4)N(C)C(=O)[C@H](CCC)NC(=O)[C@H](Cc4ccccc4F)NC1=O)(C2)C3 [compound 116, cyclo(FLac-NMeA-3Pal-Nle-Phe2F-Nva-NMe3Pal-amBCP)] (cyclo([3Pal][Nle][Phe(2-F)][Nva][NMe3Pal][X1][PhLac][NMeA])) | > 50.8
CCCC[C@@H]1NC(=O)[C@H](Cc2ccc(C(F)(F)F)nc2)NC(=O)[C@H](CCCn2ccnc2)N(C)C(=O)[C@H](Cc2ccccc2)OC(=O)C23CC(CNC(=O)[C@H](Cc4ccccc4)N(C)C(=O)[C@H](CCCC)NC(=O)[C@H](Cc4ccccc4F)NC1=O)(C2)C3 (single isomer, unassigned) [compound 218, cyclo(FLac-NMeNvalmid-4CF33Pal-Nle-Phe2F-Nle-NMeF-amBCP)] | > 50.8
C[C@H]1C(=O)N[C@@H](Cc2cncnc2)C(=O)N[C@@H](CCC(C)(F)F)C(=O)N[C@@H](Cc2ccccc2F)C(=O)N[C@@H](CCC(C)(F)F)C(=O)N(C)[C@@H](Cc2ccccc2)C(=O)NCC23CC(C2)(C3)C(=O)O[C@@H](Cc2ccccc2)C(=O)N1C [compound 288, cyclo(FLac-NMeA-PyrimAla-Nle3F2-Phe2F-Nle3F2-NMeF-amBCP)] (cyclo([NMeA][Ala(pyrimidin-5-yl)][Nle(5,5-F2)][Phe(2-F)][Nle(5,5-F2)][NMeF][X1][PhLac])) | 6.61
CCCC[C@@H]1NC(=O)[C@H](Cc2cccnc2)NC(=O)[C@H](C)N(C)C(=O)[C@H](Cc2ccccc2)NC(=O)C23CC(CNC(=O)[C@H](Cc4cccnc4)N(C)C(=O)[C@H](CCCC)NC(=O)[C@H](Cc4ccccc4F)NC1=O)(C2)C3 [compound 162, cyclo(F-NMeA-3Pal-Nle-Phe2F-Nle-NMe3Pal-amBCP)] (cyclo(F[NMeA][3Pal][Nle][Phe(2-F)][Nle][NMe3Pal][X1])) | > 50.8
CCCCC[C@@H]1NC(=O)[C@H](Cc2ccc(OC)cc2)NC(=O)[C@H](CC2CCC2)NC(=O)[C@H](Cc2cncnc2)NC(=O)[C@H](CCCNC)N(C)C(=O)[C@H](Cc2ccccc2)NC(=O)CSC[C@@](C)(C(N)=O)NC(=O)[C@H](Cc2ccc(C)nc2)N(C)C1=O [compound 394, cyclo(F-NMeOmMe-PyrimAla-cBuA-TyrOMe-Ahp-NMe3Pal4Me-aMeCl-ClAc)] ({CH2CO}-F[NMeOrn(Me)][Ala(pyrimidin-5-yl)][Cba]Y(Me)[Ahp(2)][NMe3Pal(6-Me)][αMeC]-NH2; thioether N-8) | > 50.8
CCCC[C@@H]1NC(=O)[C@H](Cc2cncnc2)NC(=O)[C@H](C)N(C)C(=O)[C@H](Cc2ccccc2)OC(=O)C23CC(CNC(=O)[C@H](Cc4cccnc4)N(C)C(=O)[C@H](CCCC)NC(=O)[C@H](Cc4ccccc4F)NC1=O)(C2)C3 [compound 237, cyclo(FLac-NMeA-PyrimAla-Nle-Phe2F-Nle-NMe3Pal-amBCP)] (cyclo([NMe3Pal][X1][PhLac][NMeA][Ala(pyrimidin-5-yl)][Nle][Phe(2-F)][Nle])) | 13.4
CCCC[C@@H]1NC(=O)[C@H](Cc2cncnc2)NC(=O)[C@H](CCCn2ccnc2)N(C)C(=O)[C@H](Cc2ccccc2)OC(=O)C23CC(CNC(=O)[C@H](Cc4ccccc4)N(C)C(=O)[C@H](CCCC)NC(=O)[C@H](Cc4ccccc4F)NC1=O)(C2)C3 (single isomer, unassigned) [compound 222, cyclo(FLac-NMeNvalmid-PyrimAla-Nle-Phe2F-Nle-NMeF-amBCP)] | > 50.8
CCCCC[C@@H]1NC(=O)[C@H](Cc2ccoc2)NC(=O)[C@H](CC2CCC2)NC(=O)[C@H](Cc2cccnc2)NC(=O)[C@H](CCCNC(=N)N)NC(=O)[C@H](Cc2ccccc2)NC(=O)CSC[C@@](C)(C(N)=O)NC(=O)[C@H](Cc2ccccc2)N(C)C1=O [compound 374, cyclo(F-R-3Pal-cBuA-Ala3Fur-Ahp-NMeF-aMeCl-ClAc)] ({CH2CO}-FR[3Pal][Cba][X47][Ahp(2)][NMeF][αMeC]-NH2; thioether N-8) | > 50.8
CCCC[C@@H]1NC(=O)[C@H](Cc2cccnc2F)NC(=O)[C@H](C)N(C)C(=O)[C@H](Cc2ccccc2)OC(=O)C23CC(CNC(=O)[C@H](Cc4cccnc4)N(C)C(=O)[C@H](CCCC)NC(=O)[C@H](Cc4ccccc4F)NC1=O)(C2)C3 [compound 117, cyclo(FLac-NMeA~3Pal2F-Nle-Phe2F-Nle-NMe3Pal-amBCP)] (cyclo([NMe3Pal][X1][PhLac][NMeA][X46][Nle][Phe(2-F)][Nle])) | 50.2
CC(C)CC[C@@H]1NC(=O)[C@H](Cc2c(F)ccnc2F)NC(=O)[C@H](CC2CC2)NC(=O)[C@H](Cc2cncnc2)NC(=O)[C@H](C)N(C)C(=O)[C@H](Cc2ccccc2)OC(=O)C23CC(CNC(=O)[C@H](Cc4ccccc4)N(C)C1=O)(C2)C3 [compound 295, cyclo(FLac-NMeA-PyrimAla-cPrA-3Pal26F2-hL-NMeF-amBCP)] (cyclo([Ala(cPr)][X5][hLeu][NMeF][X1][PhLac][NMeA][Ala(pyrimidin-5-yl)])) | 29.6
CC(C)CC[C@@H]1NC(=O)[C@H](Cc2ccccc2F)NC(=O)[C@H](CC2CC2)NC(=O)[C@H](Cc2cncnc2)NC(=O)[C@H](C)N(C)C(=O)[C@H](Cc2ccccc2)OC(=O)C23CC(CNC(=O)[C@H](Cc4cnccc4F)N(C)C1=O)(C2)C3 [compound 338, cyclo(FLac-NMeA-PyrimAla-cPrA-Phe2F-hL-NMe3Pal6F-amBCP)] (cyclo([Ala(cPr)][Phe(2-F)][hLeu][X43][X1][PhLac][NMeA][Ala(pyrimidin-5-yl)])) | 1.86
CC(C)CC[C@@H]1NC(=O)[C@H](Cc2ccnc(F)c2F)NC(=O)[C@H](CC2CC2)NC(=O)[C@H](Cc2cncnc2)NC(=O)[C@H](C)N(C)C(=O)[C@H](Cc2ccccc2)OC(=O)C23CC(CNC(=O)[C@H](Cc4ccccc4)N(C)C1=O)(C2)C3 [compound 293, cyclo(FLac-NMeA-PyrimAla-cPrA-4Pal23F2-hL-NMeF-amBCP)] (cyclo([Ala(cPr)][X33][hLeu][NMeF][X1][PhLac][NMeA][Ala(pyrimidin-5-yl)])) | 45.5
CCCC[C@@H]1NC(=O)[C@H](Cc2ccc(F)nc2)NC(=O)[C@H](C)N(C)C(=O)[C@H](Cc2ccccc2)OC(=O)C23CC(CNC(=O)[C@H](Cc4cccnc4)N(C)C(=O)[C@H](CCCC)NC(=O)[C@H](Cc4ccccc4F)NC1=O)(C2)C3 [compound 235, cyclo(FLac-NMeA-4F3Pal-Nle-Phe2F-Nle-NMe3Pal-amBCP)] (cyclo([NMe3Pal][X1][PhLac][NMeA][X25][Nle][Phe(2-F)][Nle])) | 11.8
